Assay: xn = mol fraction of the nth substance listed
Details: Liquid, Vibrating tube method

C=C(C)C(=O)OCCN(C)C [2-(dimethylamino)ethyl methylpropenoate] + CCCO
mass density [kg/m3]
Details	100 kPa	5000 kPa	10000 kPa	15000 kPa	20000 kPa	25000 kPa	30000 kPa	35000 kPa
293.15 K, x1 = 0.03	813.1	817.13	820.85	824.33	827.64	830.83	833.97	837.12
293.15 K, x1 = 0.0598	822.05	825.95	829.65	833.15	836.5	839.72	842.82	845.84
293.15 K, x1 = 0.0998	832.86	836.81	840.49	843.94	847.22	850.38	853.46	856.5
293.15 K, x1 = 0.1502	845.14	849.07	852.65	856.05	859.3	862.47	865.58	868.68
293.15 K, x1 = 0.2003	855.86	859.68	863.26	866.65	869.89	873.06	876.18	879.33
293.15 K, x1 = 0.2502	865.17	868.95	872.5	875.88	879.12	882.27	885.37	888.47
293.15 K, x1 = 0.3013	873.68	877.48	881.04	884.41	887.65	890.79	893.88	896.98
293.15 K, x1 = 0.3992	887.54	891.31	894.85	898.21	901.43	904.58	907.69	910.81
293.15 K, x1 = 0.4482	893.36	897.13	900.67	904.04	907.28	910.43	913.53	916.64
293.15 K, x1 = 0.4998	898.97	902.77	906.35	909.73	912.96	916.08	919.13	922.15
293.15 K, x1 = 0.5509	903.96	907.77	911.33	914.67	917.88	921	924.1	927.23
293.15 K, x1 = 0.5986	908.27	912.04	915.56	918.89	922.08	925.2	928.3	931.47
293.15 K, x1 = 0.699	916.1	919.83	923.35	926.69	929.91	933.05	936.14	939.24
293.15 K, x1 = 0.7994	922.7	926.51	930.05	933.38	936.55	939.65	942.73	945.86
293.15 K, x1 = 0.8519	925.73	929.5	933.03	936.39	939.61	942.75	945.87	949.02
293.15 K, x1 = 0.8992	928.25	931.98	935.56	938.89	942.14	945.3	948.43	951.54
293.15 K, x1 = 0.9284	929.69	933.42	936.97	940.36	943.63	946.83	949.98	953.12
293.15 K, x1 = 0.9587	931.16	934.9	938.45	941.84	945.11	948.29	951.43	954.55
303.15 K, x1 = 0.0307	805.44	809.69	813.63	817.3	820.75	824.03	827.2	830.29
303.15 K, x1 = 0.0599	813.96	818.16	822.06	825.7	829.13	832.41	835.6	838.73
303.15 K, x1 = 0.1003	824.72	828.9	832.79	836.41	839.84	843.1	846.24	849.31
303.15 K, x1 = 0.201	847.03	851.16	854.99	858.56	861.95	865.23	868.44	871.66
303.15 K, x1 = 0.3004	864.34	868.29	872.06	875.68	879.16	882.5	885.74	888.87
303.15 K, x1 = 0.4007	878.29	882.23	885.98	889.57	893.03	896.41	899.73	903.03
303.15 K, x1 = 0.4507	884.12	888.05	891.79	895.39	898.86	902.25	905.59	908.92
303.15 K, x1 = 0.4985	889.33	893.25	896.99	900.58	904.06	907.45	910.79	914.12
303.15 K, x1 = 0.5535	894.64	898.56	902.3	905.89	909.38	912.79	916.16	919.52
303.15 K, x1 = 0.5907	897.88	901.87	905.63	909.22	912.68	916.07	919.43	922.81
303.15 K, x1 = 0.7009	906.35	910.27	914.01	917.6	921.09	924.52	927.94	931.39
303.15 K, x1 = 0.8	912.95	916.83	920.56	924.17	927.7	931.16	934.59	938.01
303.15 K, x1 = 0.9043	918.6	922.52	926.3	929.96	933.53	937.03	940.48	943.91
303.15 K, x1 = 0.9269	919.6	923.57	927.36	931	934.55	938.03	941.51	945.01
303.15 K, x1 = 0.9551	921.07	924.99	928.75	932.41	935.97	939.47	942.94	946.41
313.15 K, x1 = 0.0303	797.13	801.51	805.58	809.4	813.02	816.51	819.93	823.33
313.15 K, x1 = 0.0602	805.6	809.95	814.02	817.86	821.5	825	828.39	831.72
313.15 K, x1 = 0.1007	816.21	820.42	824.41	828.2	831.83	835.35	838.78	842.17
313.15 K, x1 = 0.2003	838.07	842.22	846.16	849.93	853.55	857.04	860.44	863.76
313.15 K, x1 = 0.2989	854.98	859.16	863.14	866.94	870.58	874.08	877.48	880.8
313.15 K, x1 = 0.4005	869.05	873.2	877.16	880.94	884.58	888.1	891.52	894.87
313.15 K, x1 = 0.4513	875.07	879.17	883.11	886.91	890.57	894.1	897.51	900.82
313.15 K, x1 = 0.5026	880.52	884.58	888.5	892.29	895.96	899.51	902.95	906.3
313.15 K, x1 = 0.5521	885.29	889.39	893.33	897.12	900.78	904.32	907.74	911.06
313.15 K, x1 = 0.6025	889.7	893.77	897.71	901.52	905.22	908.79	912.25	915.59
313.15 K, x1 = 0.6976	897.07	901.19	905.15	908.97	912.65	916.22	919.67	923.02
313.15 K, x1 = 0.8037	903.96	908.07	912.04	915.87	919.56	923.14	926.61	929.99
313.15 K, x1 = 0.9043	909.46	913.62	917.61	921.46	925.17	928.79	932.32	935.78
313.15 K, x1 = 0.933	910.82	914.96	918.95	922.81	926.56	930.22	933.79	937.29
313.15 K, x1 = 0.9605	912.22	916.36	920.35	924.21	927.96	931.63	935.23	938.78
